Assay results from PMC11374673, “Discovery of isoquinoline sulfonamides as allosteric gyrase inhibitors with activity against fluoroquinolone-resistant bacteria” (Nature Chemistry, 2024).
≈ marks a conversion by molar mass, not a printed value. Where “and” joins values, the source holds several entries; their conditions need not be identical. Identical values can stand only once. Entries after “also recorded” stand apart in the source; their conditions may differ. Blank lines part the entries; values can stand above or below the compound they belong to.

Key:
[1] = test system: E. coli W3110; experiment: H-89 derivatives rescreen, 50 µM; format: cell-based; details: Escherichia coli, H-89 derivative rescreen, highest 50 µM
Procedure: From glycerol stocks, E. coli W3110 was cultured on blood agar plates (PB5039A, Thermo Scientific) by overnight (18 ± 2 h) aerobic incubation at 37 °C. A single colony was transferred to tryptic soy broth (TSB, 02-200-500, Scharlab). The cultures were grown to exponential phase (OD600 of 0.5) at 37 °C. The bacterial suspensions were diluted 200-fold in cation-adjusted Mueller–Hinton broth (CAMHB) and 99 µl was added to a library of test compounds (1 µl 10 mM DMSO stock, per well in technical duplicates) in polypropylene 96-well microtitre plates to reach a volume of 100 µl and a final concentration of 100 µM for each test compound and a maximum of 1% DMSO. […] Screening hits were selected from the wells where no visible bacterial growth was observed, as compared with the inoculum controls containing 1% DMSO. The follow-up screen of H-89 derivatives was performed under similar conditions with a final concentration of 50 µM.

[2] = test system: K. pneumoniae ATCC 29665; experiment: MIC by broth microdilution; format: cell-based, Klebsiella pneumoniae; details: Klebsiella pneumoniae, ATCC29665, broth microdilution; read-out: MIC K. pneumoniae ATCC 29665
Outline: (§1)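 Broth microdilution in CAMHB: twofold compound series inoculated with 100-fold-diluted bacteria from exponential growth (OD600 0.5, 37 °C); kanamycin 50 µg ml^−1 added for Keio collection strains. Overnight incubation, 37 °C, 600 r.p.m. shaking.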

[3] = test system: HEK293T; experiment: Cytotoxicity assay (MTT); format: cell-based, human; details: for MTT data (raw readout) / MTT data (raw reading): HEK293T; for IC50: 24 h, MTT
Outline: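 HEK293T cells, maintained at 37 °C and 7% CO2 in Dulbecco’s modified Eagle medium with GlutaMax, antibiotics and serum, were plated in clear 96-well plates in 100 µl medium containing 1% fetal bovine serum and left 24 h to attach. After 24 h compound exposure, MTT (0.40 mg ml^−1) was added for 2 h. Formazan was dissolved in 100 µl DMSO and absorbance measured at 570 nm. Background-corrected IC50 values came from variable-slope non-linear fits.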

[4] = test system: HepG2; experiment: Cytotoxicity assay (MTT); format: cell-based, human; details: for IC50: MTT, 24 h
[5] = test system: E. coli W3110; experiment: MIC by broth microdilution; format: cell-based, Escherichia coli; details: for MIC: broth microdilution, read-out: MIC E. coli W3110; for antimicrobial activity: relative to parent compound
Outline: as §1

[6] = 0.023 uM, experiment n = 1, technical triplicates
[7] = 0.023 uM, experiment n = 2, technical triplicates
[8] = 0.068 uM, experiment n = 1, technical triplicates
[9] = 0.068 uM, experiment n = 2, technical triplicates
[10] = 0.21 uM, experiment n = 1, technical triplicates
[11] = 0.21 uM, experiment n = 2, technical triplicates
[12] = 0.62 uM, experiment n = 1, technical triplicates
[13] = 0.62 uM, experiment n = 2, technical triplicates
[14] = 1.85 uM, experiment n = 1, technical triplicates
[15] = 1.85 uM, experiment n = 2, technical triplicates
[16] = 5.6 uM, experiment n = 1, technical triplicates
[17] = 5.6 uM, experiment n = 2, technical triplicates
[18] = 16.7 uM, experiment n = 1, technical triplicates
[19] = 50 uM, experiment n = 1, technical triplicates
[20] = 50 uM, experiment n = 2, technical triplicates
[21] = HepG2, 0.023 uM, experiment n = 2, technical triplicates
[22] = HepG2, 0.068 uM, experiment n = 1, technical triplicates
[23] = HepG2, 0.068 uM, experiment n = 2, technical triplicates
[24] = HepG2, 0.21 uM, experiment n = 1, technical triplicates
[25] = HepG2, 0.21 uM, experiment n = 2, technical triplicates
[26] = HepG2, 0.62 uM, experiment n = 1, technical triplicates
[27] = HepG2, 0.62 uM, experiment n = 2, technical triplicates
[28] = HepG2, 1.85 uM, experiment n = 1, technical triplicates
[29] = HepG2, 1.85 uM, experiment n = 2, technical triplicates

- MIC [1]: > 50 µM
SMILES: CC(C)(C)c1cc(C(=O)NCC#Cc2ccc(N)nc2)no1 [Compound 30]

- MIC [2]: 6.25 µM (≈ 2.72 µg/mL)
- MIC ([5]; Escherichia coli, W3110, WT): 3.1 µM (≈ 1.35 µg/mL)
- MIC ([5]; WT): 3.125 µM (≈ 1.36 µg/mL)
SMILES: O=S(=O)(NCCNCc1ccc(-c2ccc(F)cc2)cc1)c1cccc2cnccc12 [Compound 59]
- MTT data (raw readout) [3, 6]: 1.333 and 1.279 and 1.355
- MTT data (raw readout) [3, 7]: 1.390 and 1.481 and 1.407
- MTT data (raw readout) [3, 8]: 1.383 and 1.359
- MTT data (raw readout) [3, 9]: 1.383 and 1.292 and 1.538
- MTT data (raw readout) [3, 10]: 1.318 and 1.351 and 1.256
- MTT data (raw readout) [3, 11]: 1.291 and 1.248 and 1.339
- MTT data (raw readout) [3, 12]: 1.028 and 1.043 and 1.203
- MTT data (raw readout) [3, 13]: 1.142 and 1.303 and 1.183
- MTT data (raw readout) [3, 14]: 0.845 and 0.882 and 0.691
- MTT data (raw readout) [3, 15]: 0.871 and 0.885 and 0.773
- MTT data (raw readout) [3, 16]: 0.197 and 0.226 and 0.189
- MTT data (raw readout) [3, 17]: 0.227 and 0.205 and 0.278
- MTT data (raw readout) [3, 18]: 0.068 and 0.048 and 0.059
- MTT data (raw readout) [3, 19]: 0.036 and 0.035 and 0.032
- MTT data (raw readout) [3, 20]: 0.032 and 0.034 and 0.028
- IC50 ([3]; Homo sapiens, HEK-293T): 1.7 µM
- IC50 [3]: 2.6 µM
- MTT data (raw readout) ([4]; HepG2, 0.023 uM, experiment n = 1, technical triplicates): 1.000 and 0.992 and 0.989
- MTT data (raw readout) [4, 21]: 0.854 and 0.789 and 0.774
- MTT data (raw readout) [4, 22]: 0.940 and 0.990 and 0.945
- MTT data (raw readout) [4, 23]: 0.876 and 0.808 and 0.777
- MTT data (raw readout) [4, 24]: 0.977 and 1.029 and 0.973
- MTT data (raw readout) [4, 25]: 0.822 and 0.816 and 0.771
- MTT data (raw readout) [4, 26]: 0.952 and 1.030 and 0.967
- MTT data (raw readout) [4, 27]: 0.836 and 0.820 and 0.813
- MTT data (raw readout) [4, 28]: 0.913 and 0.914 and 0.948
- MTT data (raw readout) [4, 29]: 0.795 and 0.749 and 0.743
- IC50 ([4]; Homo sapiens, HepG2, 24 h): 1.7 µM
- antimicrobial activity [5]: twofold increase in potency

The remaining lines, values behind:

SMILES: O=C(CCc1ccc(-c2cnc3[nH]ccc3c2)cc1)NCCNS(=O)(=O)c1ccc(Cl)c(Cl)c1 [Compound 14]
- MIC [1]: > 50 µM

SMILES: O=C(CCc1ccc(-c2cnc3[nH]ccc3c2)cc1)NCCNS(=O)(=O)c1ccccc1 [Compound 12]
- MIC [1]: > 50 µM

SMILES: O=S(=O)(NC[C@@H]1CC[C@H](c2ccc(-c3ccc(F)nc3)cc2)N1)c1cccc2cnccc12 [Compound 96]
- MIC [2]: 12.5 µM (≈ 5.78 µg/mL)
- MTT data (raw readout) [3, 6]: 1.310 and 1.426 and 1.382
- MTT data (raw readout) [3, 7]: 1.005 and 1.055 and 0.974
- MTT data (raw readout) [3, 8]: 1.261 and 1.196 and 1.228
- MTT data (raw readout) [3, 9]: 1.060 and 1.105 and 1.114
- MTT data (raw readout) [3, 10]: 1.460 and 1.332 and 1.292
- MTT data (raw readout) [3, 11]: 0.944 and 1.021 and 1.022
- MTT data (raw readout) [3, 12]: 1.285 and 1.264 and 1.255
- MTT data (raw readout) [3, 13]: 0.998 and 0.945 and 0.948
- MTT data (raw readout) [3, 14]: 1.253 and 1.307 and 1.121
- MTT data (raw readout) [3, 15]: 0.889 and 0.884 and 0.825
- MTT data (raw readout) [3, 16]: 0.992 and 0.906 and 1.276
- MTT data (raw readout) [3, 17]: 0.770 and 0.750 and 0.744
- MTT data (raw readout) [3, 18]: 0.263 and 0.250 and 0.238
- MTT data (raw readout) ([3]; 16.7 uM, experiment n = 2, technical triplicates): 0.552 and 0.449 and 0.479
- MTT data (raw readout) [3, 19]: 0.081 and 0.067 and 0.062
- MTT data (raw readout) [3, 20]: 0.360 and 0.319 and 0.325
- IC50 ([3]; Homo sapiens, HEK-293T): 22 µM
- MTT data (raw readout) [4, 21]: 0.335 and 0.356 and 0.336
- MTT data (raw readout) [4, 22]: 0.697 and 0.415 and 0.444
- MTT data (raw readout) [4, 23]: 0.314 and 0.274 and 0.280
- MTT data (raw readout) [4, 24]: 0.410 and 0.391 and 0.401
- MTT data (raw readout) [4, 25]: 0.286 and 0.328 and 0.321
- MTT data (raw readout) [4, 26]: 0.318 and 0.339 and 0.325
- MTT data (raw readout) [4, 27]: 0.277 and 0.335 and 0.337
- MTT data (raw readout) [4, 28]: 0.449 and 0.459 and 0.475
- MTT data (raw readout) [4, 29]: 0.324 and 0.290 and 0.321
- MTT data (raw readout) ([4]; HepG2, 5.6 uM, experiment n = 1, technical triplicates): 0.376 and 0.380 and 0.428
- MTT data (raw readout) ([4]; HepG2, 5.6 uM, experiment n = 2, technical triplicates): 0.305 and 0.314 and 0.321
- MTT data (raw readout) ([4]; HepG2, 16.7 uM, experiment n = 1, technical triplicates): 0.356 and 0.341 and 0.324
- MTT data (raw readout) ([4]; HepG2, 16.7 uM, experiment n = 2, technical triplicates): 0.281 and 0.283 and 0.288
- MTT data (raw readout) ([4]; HepG2, 50 uM, experiment n = 1, technical triplicates): 0.302 and 0.347 and 0.370
- MTT data (raw readout) ([4]; HepG2, 50 uM, experiment n = 2, technical triplicates): 0.208 and 0.219 and 0.229
- IC50 ([4]; Homo sapiens, HepG2, 24 h): > 100 µM
- IC50 [4]: > 50 µM
- MIC ([5]; Escherichia coli, W3110, WT): 3.1 µM (≈ 1.43 µg/mL)
- antimicrobial activity [5]: twofold increase in potency; also recorded: active

SMILES: O=S(=O)(NCCNCc1ccc(-c2ccc(Cl)cc2)cc1)c1cccc2cnccc12 [Compound 61]
- MIC [2]: > 50 µM
- MTT data (raw reading) ([3]; 0.023 uM, n = 1): 0.895 and 1.117 and 0.888
- MTT data (raw reading) ([3]; 0.023 uM, n = 2): 0.606 and 0.823 and 0.767
- MTT data (raw reading) ([3]; 0.068 uM, n = 1): 1.228 and 1.100 and 1.289
- MTT data (raw reading) ([3]; 0.068 uM, n = 2): 0.594 and 0.790 and 0.797
- MTT data (raw reading) ([3]; 0.21 uM, n = 1): 1.193 and 1.192 and 1.600
- MTT data (raw reading) ([3]; 0.21 uM, n = 2): 0.478 and 0.738 and 0.728
- MTT data (raw reading) ([3]; 0.62 uM, n = 1): 0.992 and 0.937 and 0.903
- MTT data (raw reading) ([3]; 0.62 uM, n = 2): 0.540 and 0.686 and 0.703
- MTT data (raw reading) ([3]; 1.85 uM, n = 1): 0.640 and 0.552 and 0.507
- MTT data (raw reading) ([3]; 1.85 uM, n = 2): 0.345 and 0.480 and 0.465
- MTT data (raw reading) ([3]; 5.6 uM, n = 1): 0.114 and 0.126 and 0.094
- MTT data (raw reading) ([3]; 5.6 uM, n = 2): 0.048 and 0.047 and 0.040
- MTT data (raw reading) ([3]; 16.7 uM, n = 1): 0.021 and 0.012 and 0.016
- IC50 ([3]; Homo sapiens, HEK-293T): 1 µM
- MTT data (raw reading) ([4]; HepG2, 0.023 uM, n = 1): 0.473 and 0.481 and 0.514
- MTT data (raw reading) ([4]; HepG2, 0.023 uM, n = 2): 0.517 and 0.561 and 0.567
- MTT data (raw reading) ([4]; HepG2, 0.068 uM, n = 1): 0.534 and 0.501 and 0.482
- MTT data (raw reading) ([4]; HepG2, 0.068 uM, n = 2): 0.479 and 0.534 and 0.570
- MTT data (raw reading) ([4]; HepG2, 0.21 uM, n = 1): 0.462 and 0.484 and 0.480
- MTT data (raw reading) ([4]; HepG2, 0.21 uM, n = 2): 0.576 and 0.558 and 0.573
- MTT data (raw reading) ([4]; HepG2, 0.62 uM, n = 1): 0.454 and 0.449
- MTT data (raw reading) ([4]; HepG2, 0.62 uM, n = 2): 0.464 and 0.502 and 0.467
- MTT data (raw reading) ([4]; HepG2, 1.85 uM, n = 1): 0.401 and 0.414 and 0.404
- MTT data (raw reading) ([4]; HepG2, 1.85 uM, n = 2): 0.454 and 0.456 and 0.471
- MTT data (raw reading) ([4]; HepG2, 5.6 uM, n = 1): 0.017 and 0.021 and 0.022
- MTT data (raw reading) ([4]; HepG2, 5.6 uM, n = 2): 0.042 and 0.022 and 0.021
- MTT data (raw reading) ([4]; HepG2, 16.7 uM, n = 1): 0.009 and 0.013
- IC50 ([4]; Homo sapiens, HepG2, 24 h): 2.8 µM
- MIC ([5]; Escherichia coli, W3110, WT): 6.25 µM (≈ 2.82 µg/mL)
